For one series, the system named is Male Wistar rats. In words: Sleep-wakefulness, locomotor activity and body temperature monitoring (SCORE-2000) in rats.
For another series, the target named is T1, muscarinic1 binding site (Bos taurus, UniProt F1N5C5).
T1 sequence (F1N5C5 1-460): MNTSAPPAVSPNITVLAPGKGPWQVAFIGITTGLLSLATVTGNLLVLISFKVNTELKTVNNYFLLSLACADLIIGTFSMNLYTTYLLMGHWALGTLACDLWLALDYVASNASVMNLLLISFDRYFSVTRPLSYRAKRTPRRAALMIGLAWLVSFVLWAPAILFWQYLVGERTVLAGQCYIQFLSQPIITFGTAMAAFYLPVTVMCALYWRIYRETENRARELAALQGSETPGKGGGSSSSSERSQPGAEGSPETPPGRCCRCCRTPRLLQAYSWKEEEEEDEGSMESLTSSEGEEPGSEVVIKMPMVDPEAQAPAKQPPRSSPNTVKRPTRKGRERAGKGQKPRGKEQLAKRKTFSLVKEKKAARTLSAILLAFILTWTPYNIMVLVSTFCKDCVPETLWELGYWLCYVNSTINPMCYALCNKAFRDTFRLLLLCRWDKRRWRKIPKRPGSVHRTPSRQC
Nature of the series: biochemical.

In a further series the target is T2, histamine receptor, H1 (Bos taurus, UniProt P30546).
T2 construct: from tissue; host or cells: bovine cerebellar membranes (per earlier reading)
Nature of the series: H1 binding assay, displacement of [3H]Pyrilamine, bovine cerebellar membranes. For orientation: Loss of bound radioactivity is the signal in a displacement assay; it reports binding, not function.

In series [1] the target is T3, cloned muscarinic - M1 binding site (Homo sapiens, UniProt P11229).
T3 construct: expressed in transfected cells; host or cells: CHO cells
T3 sequence (P11229 1-460): T1 sequence (F1N5C5 1-460) with A206T, T265A, A315T, R331K, E335D
In words: Muscarinic M1 binding assay, [3H]-Scopolamine N-Methyl Chloride, human recombinant expressed in CHO cells.

Series [2] addresses T4, cloned muscarinic - M2 binding site (Homo sapiens, UniProt P08172).
T4 construct: expressed in transfected cells; host or cells: CHO cells
T4 sequence (P08172 1-466): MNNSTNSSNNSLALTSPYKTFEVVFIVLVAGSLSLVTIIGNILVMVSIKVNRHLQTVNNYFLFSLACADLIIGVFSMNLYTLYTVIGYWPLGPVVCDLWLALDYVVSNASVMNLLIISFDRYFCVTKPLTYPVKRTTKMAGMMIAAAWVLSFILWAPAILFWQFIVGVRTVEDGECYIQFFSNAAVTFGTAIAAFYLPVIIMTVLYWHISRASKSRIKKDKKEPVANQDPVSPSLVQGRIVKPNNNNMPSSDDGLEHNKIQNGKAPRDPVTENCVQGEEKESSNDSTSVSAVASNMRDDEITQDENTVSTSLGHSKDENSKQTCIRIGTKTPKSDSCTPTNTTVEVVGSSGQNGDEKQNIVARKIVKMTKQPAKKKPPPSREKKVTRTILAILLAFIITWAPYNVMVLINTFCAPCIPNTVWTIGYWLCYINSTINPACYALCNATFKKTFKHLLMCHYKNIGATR
In words: Muscarinic M2 binding assay, [3H]-Scopolamine N-Methyl Chloride, human recombinant expressed in CHO cells.

The target of series [3] is T5, cloned muscarinic - M3 binding site (Homo sapiens, UniProt P20309).
T5 construct: expressed in transfected cells; host or cells: CHO cells
In words: Muscarinic M3 binding assay, [3H]-Scopolamine N-Methyl Chloride, human recombinant expressed in CHO cells.

The mark [4] stands for this setting: Table 6, read-out: Receptor Binding Data (Ki nM) H1.
[5] abbreviates: Table 6, human recombinant, read-out: Receptor Binding Data (Ki nM) M1.
Setting [6] is: Table 6, human recombinant, read-out: Receptor Binding Data (Ki nM) M2.
The mark [7] stands for this setting: Table 6, human recombinant, read-out: Receptor Binding Data (Ki nM) M3.
[8] abbreviates: Series 11 compounds, Table 5, unit inferred, read-out: H1 Ki.
Where [9] appears, read: Series 11 compounds, Table 5, unit inferred, receptor source not given.
Setting [10] is: Series 11 compounds, Table 5, unit inferred, receptor source not given, read-out: M1 Ki.
Setting [11] is: Series 11 compounds, Table 5, unit inferred, receptor source not given, read-out: M2 Ki.
[12] abbreviates: Series 11 compounds, Table 5, unit inferred, receptor source not given, read-out: M3 Ki.
Where [13] appears, read: Series 11 compounds, Table 5, unit inferred.

Each structure is given as a SMILES string. Where a chain is given by its changes, count along the chain named. Structures can show the parent of a compound that is named as a salt. Where two headings read alike, the source gives them in different places.

T2 sequence (P30546 whole entry): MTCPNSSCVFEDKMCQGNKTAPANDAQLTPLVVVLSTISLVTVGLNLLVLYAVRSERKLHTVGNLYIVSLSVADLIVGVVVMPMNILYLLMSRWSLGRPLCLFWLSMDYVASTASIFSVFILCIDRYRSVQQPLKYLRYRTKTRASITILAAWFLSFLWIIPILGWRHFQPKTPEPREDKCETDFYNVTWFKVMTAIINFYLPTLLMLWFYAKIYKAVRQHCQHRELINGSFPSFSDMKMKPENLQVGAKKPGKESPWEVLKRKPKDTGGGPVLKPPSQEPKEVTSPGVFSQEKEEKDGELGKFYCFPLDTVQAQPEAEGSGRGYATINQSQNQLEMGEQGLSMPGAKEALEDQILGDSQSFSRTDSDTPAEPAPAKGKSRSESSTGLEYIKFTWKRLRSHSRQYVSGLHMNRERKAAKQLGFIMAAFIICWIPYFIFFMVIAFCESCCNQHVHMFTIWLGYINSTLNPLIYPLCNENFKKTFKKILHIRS
T5 sequence (P20309 whole entry): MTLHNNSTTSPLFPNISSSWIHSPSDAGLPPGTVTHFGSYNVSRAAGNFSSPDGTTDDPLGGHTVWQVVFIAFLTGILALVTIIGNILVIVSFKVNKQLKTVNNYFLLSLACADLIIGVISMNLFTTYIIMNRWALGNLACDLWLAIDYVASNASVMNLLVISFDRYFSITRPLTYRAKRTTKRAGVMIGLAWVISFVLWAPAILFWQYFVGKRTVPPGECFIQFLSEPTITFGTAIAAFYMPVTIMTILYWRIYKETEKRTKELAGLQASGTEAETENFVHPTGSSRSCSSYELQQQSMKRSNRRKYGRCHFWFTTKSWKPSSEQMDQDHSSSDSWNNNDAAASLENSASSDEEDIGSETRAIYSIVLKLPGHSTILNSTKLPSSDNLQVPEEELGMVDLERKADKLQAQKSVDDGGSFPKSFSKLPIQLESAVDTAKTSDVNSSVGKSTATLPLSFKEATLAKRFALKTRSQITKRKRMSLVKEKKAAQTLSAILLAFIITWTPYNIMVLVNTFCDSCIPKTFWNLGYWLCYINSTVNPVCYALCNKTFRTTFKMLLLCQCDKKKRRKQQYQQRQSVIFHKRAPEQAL

Consider `Cc1ccc(-c2nc3ccc(C)cn3c2CC(=O)N(C)C)cc1` [Ambien, Zolpidem, reference compound], for which, in the series with Male Wistar rats (30 mg/kg IP, at CT-18, rats), the “Motor Inhibition” value was “YES”, the “REM Inhibition” value was “YES” and the “Rebound Insomnia” value is “YES”.
With `CN1[C@@H]2CC[C@H]1C[C@@H](OC(=O)C(CO)c1ccccc1)C2` (stereo partly drawn) [Atropine], the Ki at muscarinic1 binding site worked out at 0.4 nM.
For `O=C(O)CCN1CCC(OC(c2ccccc2)c2ccccc2)CC1` [Compound 6a, 3-[4-(dipbenylmethoxy)piperidin-1-yl]propanoic acid hydrochloride], the Ki on histamine receptor, H1 (setting [4]) was 56.1 nM; in series [1] (setting [5]) it was above 10000 nM; in series [2] (setting [6]), above 10000 nM; in series [3] (setting [7]), 8900 nM.
Regarding `O=C(O)CN1CCC(=C2c3ccccc3COc3ccccc32)CC1` [Compound 7a], on histamine receptor, H1 (setting [4]), the Ki amounted to 55.1 nM.
Consider `O=C(O)CCN1CCC(=C2c3ccccc3COc3ccccc32)CC1` [Compound 8a], for which the Ki at histamine receptor, H1 (setting [4]) was 62.5 nM; in series [1] (setting [5]), above 10000 nM; in series [2] (setting [6]), above 10000 nM; in series [3] (setting [7]), above 10000 nM.
For the compound `O=C(O)CCN1CCC(=C(c2ccccc2)c2ccccc2)CC1` [Compound 11a], the Ki on histamine receptor, H1 (setting [8]) is 119 nM; in series [1] (setting [10]) it was above 10000 nM; in series [2] (setting [11]), above 10000 nM; in series [3] (setting [12]), above 10000 nM. Also, the IC50 in series [1] (setting [9]), in series [2] (setting [9]) and in series [3] (setting [9]) was above 10000 nM in each case.
Take `CC(C)OC(=O)CCN1CCC(=C(c2ccccc2)c2ccccc2)CC1` [Compound 11d, Isopropyl 3-[4-(diphenylmethylidene)piperidin-1-yl]propanoate]: the inhibition constant (Ki) amounted to 147 nM at histamine receptor, H1 (setting [8]); 696 nM in series [1] (setting [10]); 270 nM in series [2] (setting [11]); 2700 nM in series [3] (setting [12]). For the same compound, the IC50 in series [1] (setting [9]) worked out at 8000 nM; in series [2] (setting [9]), 829 nM; in series [3] (setting [9]), 6080 nM.
Take `CC(C)COC(=O)CCN1CCC(=C(c2ccccc2)c2ccccc2)CC1` [Compound 11e, Isobutyl 3-[4-(diphenylmethylidene)piperidin-1-yl]propanoate]: the inhibitory constant (Ki) at histamine receptor, H1 (setting [8]) amounted to 279 nM; in series [1] (setting [10]) it was 289 nM; in series [2] (setting [11]) it was 1150 nM; in series [3] (setting [12]) it was 710 nM. Further, the half-inhibitory concentration (IC50) in series [1] (setting [9]) is 3760 nM; in series [2] (setting [9]), 3550 nM; in series [3] (setting [9]), 2590 nM.
As to `O=C(CCN1CCC(=C(c2ccccc2)c2ccccc2)CC1)OC1CCCC1.O=C(O)C(=O)O` [Compound 11f, Cyclopentyl 3-[4-(diphenylmethylidene)piperidin-1-yl]propanoate, oxalic acid salt], the Ki at histamine receptor, H1 (setting [8]) turned out to be 416 nM; in series [1] (setting [10]), 170 nM. Moreover, the IC50 in series [1] (setting [9]) is 2210 nM. Besides, the “cumulative effect on total sleep time (TST) during the initial 5 hours post-treatment, relative to baseline” value in the series on Male Wistar rats (11f 30 mg/kg versus Zolpidem 10 mg/kg, rats, FIG. 1(b)) is “induced more TST than Zolpidem”. Also, the locomotor activity entry with Male Wistar rats (male Wistar rats, IP at CT-18, 10 and 30 mg/kg) is “reduction in locomotor activity”. For the same compound, the “sleep continuity, as assessed by sleep bout length” value in the series with Male Wistar rats (male Wistar rats, IP at CT-18, 10 and 30 mg/kg, relative to vehicle control) is on record as “increased sleep continuity”. The total sleep time entry in the series with Male Wistar rats (male Wistar rats, IP at CT-18, both 30 mg/kg and 10 mg/kg) is on record as “significantly increased total sleep time for 3 hours post-treatment”. In the series on Male Wistar rats (male Wistar rats, intraperitoneal bolus at CT-18, 11f 30 and 10 mg/kg, 6f and 15f 30 mg/kg), the “soporific effects (nonREM sleep time, sleep continuity)” value is “robust soporific effects”.
In the case of `O=C(CCN1CCC(=C(c2ccccc2)c2ccccc2)CC1)O[C@H]1CCOC1` [Compound 11g], the half-inhibitory concentration (IC50) on histamine receptor, H1 (setting [13]) is 196 nM. In addition, the inhibition constant Ki at histamine receptor, H1 (setting [8]) came out at 86.1 nM.
For the compound `O=C(CCN1CCC(=C(c2ccccc2)c2ccccc2)CC1)OC1CCOC1` (stereo not drawn) [Compound 11h], the IC50 was determined as 201 nM at histamine receptor, H1 (setting [13]); 2240 nM in series [1] (setting [9]); 2140 nM in series [2] (setting [9]); 2200 nM in series [3] (setting [9]). For the same compound, the Ki was 88.3 nM at histamine receptor, H1 (setting [8]); 172 nM in series [1] (setting [10]); 697 nM in series [2] (setting [11]); 603 nM in series [3] (setting [12]).
In the case of `O=C(CCN1CCC(=C(c2ccccc2)c2ccccc2)CC1)OC1CCOCC1` [Compound 11i], the 50% inhibitory concentration (IC50) turned out to be 200 nM at histamine receptor, H1 (setting [13]); 221 nM in series [1] (setting [9]); 221 nM in series [2] (setting [9]); 2330 nM in series [3] (setting [9]). In addition, the Ki on histamine receptor, H1 (setting [8]) amounted to 87.8 nM; in series [1] (setting [10]), 17 nM; in series [2] (setting [11]) it was 72 nM; in series [3] (setting [12]), 1030 nM.
Consider `Cc1ccc(/C(=C\CN2CCCC2)c2cccc(C(=O)O)n2)cc1` [Compound 16a], for which the Ki in series [1] (setting [5]), in series [2] and in series [3] (setting [7]) was above 10000 nM throughout.
Take `O=C(O)CCCN1CCC(OC(c2ccccc2)c2ccccc2)CC1` [Compound 53a]: the Ki on histamine receptor, H1 (setting [4]) is 16.1 nM; in series [1] (setting [5]) it was above 10000 nM; in series [2] (setting [6]), above 10000 nM; in series [3] (setting [7]), above 10000 nM.
Turning to `O=C(O)CCCN1CCC(=C2c3ccccc3COc3ccccc32)CC1` [Compound 73a], the Ki at histamine receptor, H1 (setting [4]) is 42.8 nM; in series [1] (setting [5]) it was above 10000 nM; in series [2] (setting [6]), above 10000 nM; in series [3] (setting [7]), above 10000 nM.
On to `CC(C)(CN1CCC(=C2c3ccccc3COc3ccccc32)CC1)C(=O)O` [Compound 74a], for which the Ki is 109 nM on histamine receptor, H1 (setting [4]); above 10000 nM in series [1] (setting [5]); above 10000 nM in series [2] (setting [6]); above 10000 nM in series [3] (setting [7]).
In the case of `CC(C)(CCN1CCC(=C2c3ccccc3COc3ccccc32)CC1)C(=O)O` [Compound 75a], the inhibition constant Ki at histamine receptor, H1 (setting [4]) is 47.9 nM; in series [1] (setting [5]) it was above 10000 nM; in series [2] (setting [6]), 3330 nM; in series [3] (setting [7]), above 10000 nM.
With `CN(C)CCCSC(=N)N` [Dimaprit, reference compound], the inhibitory constant (Ki) on histamine receptor, H1 (reference compounds, bovine cerebellar membranes, [3H]Pyrilamine 2.0 nM, read-out: Ki) is above 10000 nM.
In the case of `COc1ccccc1CNCCCCCCNCCCCCCCCNCCCCCCNCc1ccccc1OC` [Methoctramine, reference compound], the Ki in series [1] was 29.7 nM; in series [3] (reference compounds, M3 human recombinant in CHO cells, read-out: Ki), 700 nM.
`Cc1scc2c1N(C(=O)CN1CCN(C)CC1)c1ccccc1NC2=O` [Telenzepine]: the affinity on muscarinic1 binding site corresponds to a Ki of 64.5 nM.
Take `CC(C)OC(=O)CN1CCC(=C2c3ccccc3COc3ccccc32)CC1` [dox7d-oxalate]: the Ki is 198 nM on histamine receptor, H1 (setting [4]); above 10000 nM in series [1] (setting [5]); above 10000 nM in series [2] (setting [6]); above 10000 nM in series [3] (setting [7]).

One may read the Ki as a dissociation constant, usually derived from enzyme kinetics or from competition with a known ligand. A word on the IC50: it is the point on the concentration scale where inhibition reaches its midpoint.

Source of the values: patent US20040142972A1, “CNS target modulators” (Hypnion, Inc., priority 2001, published 2004).
